These results are taken from patent US4774251A, “Method of inhibiting aromatase” (Eli Lilly and Company, priority 1984, dated 1988).

The target in one assay is T1, aromatase (Rattus norvegicus, UniProt P22443).
T1 construct: ovarian microsomes are obtained from rats treated with pregnant mares serum gonadotropin; from tissue; host or cells: ovarian microsomes from rats treated with pregnant mares serum gonadotropin
T1 sequence (P22443 1-508): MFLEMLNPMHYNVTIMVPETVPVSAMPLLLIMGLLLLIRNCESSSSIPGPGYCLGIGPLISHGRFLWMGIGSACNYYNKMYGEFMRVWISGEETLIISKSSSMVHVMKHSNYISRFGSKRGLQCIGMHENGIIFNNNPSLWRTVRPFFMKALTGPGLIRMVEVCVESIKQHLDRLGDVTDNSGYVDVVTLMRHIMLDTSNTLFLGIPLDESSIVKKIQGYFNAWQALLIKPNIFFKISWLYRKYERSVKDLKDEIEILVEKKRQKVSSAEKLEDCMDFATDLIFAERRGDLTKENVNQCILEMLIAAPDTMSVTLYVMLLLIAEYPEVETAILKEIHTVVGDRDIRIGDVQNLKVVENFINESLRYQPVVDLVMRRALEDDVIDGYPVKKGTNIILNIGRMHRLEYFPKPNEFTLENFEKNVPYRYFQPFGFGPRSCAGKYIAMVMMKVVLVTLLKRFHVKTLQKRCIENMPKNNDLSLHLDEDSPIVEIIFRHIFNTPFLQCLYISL
The assay can be described thus: Aromatase inhibition in the rat ovarian microsome assay. In kind it is biochemical.

Assay [1] concerns uterus (weight stimulated by estrogens produced by aromatization). The assay can be described thus: Estrogen synthesis inhibition in rats: uterine weight after testosterone propionate. The note with it: 7 days, testosterone-treated control: Test I 180.3, Test II 210.4, corn oil control: 66.7, 101.4. In kind it is in vivo, rat (immature female Wistar). As to the method: Immature female Wistar rats (45-55 grams) were divided into control and test groups of 4-8 animals each. Test compounds were administered for seven days as a component of the diet. Control animals received diet without the test compound. Beginning on the fourth day of the test, all animals treated with the test compound and one half of the control animals were given a subcutaneous injection of 1.0 mg of testosterone propionate in corn oil. The remaining control animals received only an equivalent volume of corn oil. On the seventh day of the test, rats treated with testosterone propionate were injected subcutaneously with 100 μCi of [^3 H]-testosterone in 50 μl of 3:1 (v/v) saline-ethanol.
After two hours, the animals were killed by decapitation. Uteri were isolated, trimmed of extraneous connective tissue, and weighted. […] In the control animals treated with testosterone propionate, estrogens produced by aromatization stimulated the uterus resulting in an increase in weight.

In assay [2] the test system is estrogen synthesis (ovarian estradiol, estrone, estriol). The assay is described as follows: Estrogen synthesis inhibition in rats: ovarian steroid concentrations after [3H]-testosterone. The assay is classed as in vivo, rat (immature female Wistar). The following applies: 7 days, ovary; for Mean Steroid Concentration, estriol: testosterone-treated control: Test I 0.41, Test II 0.17; for Mean Steroid Concentration, estrone: testosterone-treated control: Test I 0.88, Test II 0.41; for Mean Steroid Concentration, estradiol: testosterone-treated control: Test I 2.29, Test II 0.78.
Procedure: The ovarian steroids were extracted with 1.5 ml of 9:1 (v/v) toluene/ethanol to which had been added 25 to 100 mcg each of unlabelled estradiol, estriol, and estrone, and approximately 1000 dpm of [^14 C]-estradiol. The samples were vortexed, centrifuged at 500×g for 10 minutes, and the organic phase was transferred to a conical vial. Two additional extractions were performed on the residue in the same way. The pooled organic extract were evaporated for subsequent thin-layer chromatography.
The organic residue from each above extraction was redissolved in 9:1 (v/v) dichloromethane/methanol. The solution of each sample was applied to separate silica gel thin layer chromatography plates which contained a fluorescent indicator. The plates were developed in the first dimension with 160:38:1.5:0.5 (v/v/v/v) dichloromethane/ethyl acetate/methanol/acetic acid to within 3 cm of the top of the plate. After air-drying, the plate was developed in the second dimension with 180:19:1 (v/v/v) dichloromethane/methanol/ammonium hydroxide.
The spots were scraped from the plate using a glass wool plugged Pasteur pipet attached to a vacuum line. The steroids were eluted directly into scintillation vials by the addition of 0.2 ml of dichloromethane followed by two washes each of 2.0 ml of methanol. The organic solvent was evaporated and 10.0 ml of scintillation fluid (Beckman Ready Solv-NA) was added to the vials. Samples were analyzed by liquid scintillation spectrometry. Corrections were made based on the recoveries of the [^14 C]-steroid. Steroid concentrations are expressed as femtomoles per milligram protein.

The mark [3] stands for this setting: rat ovarian microsomes, substrate 4-androstene-3,17-dione 0.1 μM, [3H]-H2O release.
The mark [4] stands for this setting: 30 ppm in feed (approx. 3 mg/kg/day).
Where [5] appears, read: 300 ppm in feed (approx. 30 mg/kg/day).

Like-named read-outs stand apart in the source and are kept apart here.

Procedure for aromatase: In this test system, ovarian microsomes are obtained from rats treated with pregnant mares serum gonadotropin. Test compounds are added to reaction vials containing 0.1 μM 4-androstene-3,17-dione, 100,000 dpm 1,2[^3 H]-androstenedione, the microsomes and a NADPH generating system. The concentrations of the inhibitors tested ranged between 0.005 and 10 μM.

In the case of `C=CCN(Cc1cccnc1)c1ccc(Cl)cc1Cl` [N--(2,4-dichlorophenyl)-N--(2-propenyl)-3-pyridinemethanamine], the response at aromatase (setting [3]) was half-maximal at 750 nM (EC50).
In the case of `C#CCN(Cc1cccnc1)c1ccc(Cl)cc1Cl` [N--(2,4-dichlorophenyl)-N--(2-propynyl)-3-pyridinemethanamine], the EC50 (commonly the midpoint of the concentration-response curve) on aromatase stood at 165 nM.
The molecule `Clc1ccc(N(Cc2ccccc2)Cc2cccnc2)c(Cl)c1` [N--(2,4-dichlorophenyl)-N--benzyl-3-pyridinemethanamine] registered an EC50 at aromatase (setting [3]) of 310 nM.
`CCCCCCN(Cc1cccnc1)c1ccc(Cl)cc1Cl` [N--(2,4-dichlorophenyl)-N--hexyl-3-pyridinemethanamine] displayed an EC50 on aromatase of 1200 nM.
Take `Fc1ccc(N(Cc2ccccc2)Cc2cccnc2)c(F)c1` [N--(2,4-difluorophenyl)-N--benzyl-3-pyridinemethanamine]: the “Mean Uterine Weight” value in assay [1] (setting [4]) was 196.3 mg. Moreover, the “Mean Uterine Weight” value in assay [1] (setting [5]) worked out at 171.4 mg. Further, in assay [2] (setting [4]), the “Mean Steroid Concentration, estriol” value is listed as 0.44 femtomoles per milligram of protein; the “Mean Steroid Concentration, estrone” value is recorded as 0.00 femtomoles per milligram of protein; the “Mean Steroid Concentration, estradiol” value was 0.84 femtomoles per milligram of protein. Also, in assay [2] (setting [5]), the “Mean Steroid Concentration, estriol” value is on record as 0.32 femtomoles per milligram of protein; the “Mean Steroid Concentration, estrone” value is 0.00 femtomoles per milligram of protein; the “Mean Steroid Concentration, estradiol” value was 0.44 femtomoles per milligram of protein. The molecule also came in with an EC50 on aromatase (setting [3]) of under 50 nM.
Regarding `CC=CCN(Cc1cccnc1)c1ccc(Cl)cc1Cl` [N--(2-butenyl)-N--(2,4-dichlorophenyl)-3-pyridinemethanamine], it took 359 nM to reach a half-maximal effect at aromatase (EC50).
In the case of `Fc1ccc(C(Nc2ccccc2Cl)c2cccnc2)cc1` (stereo not drawn) [N--(2-chlorophenyl)-α-(4-fluorophenyl)-3-pyridinemethanamine], the “Mean Uterine Weight” value in assay [1] (setting [4]) worked out at 154.3 mg. In addition, in assay [1] (setting [5]), the “Mean Uterine Weight” value came to 157.4 mg. Also, in assay [2] (setting [4]), the “Mean Steroid Concentration, estriol” value is listed as 0.51 femtomoles per milligram of protein; the “Mean Steroid Concentration, estrone” value is listed as 0.47 femtomoles per milligram of protein; the “Mean Steroid Concentration, estradiol” value was 2.67 femtomoles per milligram of protein. Moreover, in assay [2] (setting [5]), the “Mean Steroid Concentration, estriol” value is 0.37 femtomoles per milligram of protein; the “Mean Steroid Concentration, estrone” value is 0.31 femtomoles per milligram of protein; the “Mean Steroid Concentration, estradiol” value is 1.64 femtomoles per milligram of protein. The response at aromatase (setting [3]) was half-maximal at 80 nM (EC50).
For `CC(c1cccnc1)N(C)c1ccc(Cl)cc1` (stereo not drawn) [N--(4-chlorophenyl)-N,α-dimethyl-3-pyridinemethanamine], on aromatase (setting [3]), a half-maximal effect (EC50) was put at 2000 nM.
Still for that read-out and setting: next, `CN(c1ccc(Cl)cc1)C(c1ccccc1)c1cccnc1` (stereo not drawn) [N--(4-chlorophenyl)-N--methyl-α-phenyl-3-pyridinemethanamine]: 2500 nM; `CC(c1cccnc1)N(Cc1ccccc1)c1ccc(Cl)cc1` (stereo not drawn) [N--(4-chlorophenyl)-α-methyl-N--benzyl-3-pyridinemethanamine]: 1200 nM.
Same read-out and setting: to `CCCCN(Cc1cccnc1)c1ccc(C)cc1C` [N--butyl-N--(2,4-dimethylphenyl)-3-pyridinemethanamine] belongs 630 nM; to `CCCCN(c1ccc(Cl)cc1)C(c1ccccc1)c1cccnc1` (stereo not drawn) [N--butyl-N--(4-chlorophenyl)-α-phenyl-3-pyridinemethanamine], 290 nM.
On the same count and under the same terms, next, `CCCCN(c1ccc(F)cc1)C(C)c1cccnc1` (stereo not drawn) [N--butyl-N--(4-fluorophenyl)-α-methyl-3-pyridinemethanamine]: 370 nM.
`CCCCN(Cc1ccc(Cl)cc1)c1cnccn1` [N--butyl-N--[(4-chlorophenyl)methyl]pyrazinamine] registered a concentration giving a half-maximal response (EC50) at aromatase (setting [3]) of 740 nM.
